{
  "source": "patent US7737136B2",
  "about": "(N.V. Organon, priority 2002, dated 2010)",
  "note": "pEC50: −log10 of the molar value.",
  "data": [
    {"molecular_target": "T1, human progesterone receptor-B (Homo sapiens, UniProt P06401)", "T1 construct": "expressed in transfected cells; host or cells: Chinese hamster ovary (CHO) cells, line CHO-PRB-pMMTV-LUC 1E2-A2", "T1 sequence (P06401 1-933)": "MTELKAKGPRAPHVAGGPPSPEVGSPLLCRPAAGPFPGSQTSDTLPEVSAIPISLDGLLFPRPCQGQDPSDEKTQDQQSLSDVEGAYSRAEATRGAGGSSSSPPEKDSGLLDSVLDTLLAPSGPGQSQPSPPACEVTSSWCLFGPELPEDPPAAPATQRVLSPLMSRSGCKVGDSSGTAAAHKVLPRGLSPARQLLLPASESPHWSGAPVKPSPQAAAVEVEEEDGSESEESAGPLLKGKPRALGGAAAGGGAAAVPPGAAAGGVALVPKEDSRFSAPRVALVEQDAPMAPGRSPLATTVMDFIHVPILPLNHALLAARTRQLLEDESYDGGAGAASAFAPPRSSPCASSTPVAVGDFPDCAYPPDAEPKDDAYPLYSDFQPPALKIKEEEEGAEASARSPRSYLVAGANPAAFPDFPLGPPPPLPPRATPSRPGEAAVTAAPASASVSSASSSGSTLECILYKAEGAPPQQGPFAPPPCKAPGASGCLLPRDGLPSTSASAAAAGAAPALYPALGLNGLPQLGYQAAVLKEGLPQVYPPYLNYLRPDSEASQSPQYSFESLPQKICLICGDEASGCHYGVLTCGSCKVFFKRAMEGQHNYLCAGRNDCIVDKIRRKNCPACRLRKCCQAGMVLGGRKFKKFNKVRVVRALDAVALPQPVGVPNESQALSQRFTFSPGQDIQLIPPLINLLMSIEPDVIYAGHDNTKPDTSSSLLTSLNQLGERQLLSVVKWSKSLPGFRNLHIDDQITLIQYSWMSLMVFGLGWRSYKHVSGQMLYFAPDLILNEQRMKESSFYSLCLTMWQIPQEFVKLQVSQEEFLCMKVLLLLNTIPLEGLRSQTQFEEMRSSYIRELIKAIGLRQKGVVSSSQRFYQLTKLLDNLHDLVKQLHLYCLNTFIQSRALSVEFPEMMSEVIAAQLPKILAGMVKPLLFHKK", "assay": "Progesterone receptor-B transactivation assay, progestagenic (agonist) activity, CHO-PRB-pMMTV-LUC 1E2-A2 cells", "format": "cell-based", "settings": "CHO cells stably transfected with human progesterone receptor-B and MMTV-luciferase reporter; read-out: Progestagenic activity EC50", "procedure": "The (anti-)progestagenic activity of a compound of the invention (EC 50 and intrinsic activity) was determined in an in vitro bioassay of Chinese hamster ovary (CHO) cells stably transfected with the human progesterone receptor-B expression plasmid and with a reporter plasmid in which the MMTV-promoter is linked to the luciferase reporter gene. […] The cells were cultured with charcoal-treated supplemented defined bovine calf serum from Hyclone (Utah, USA) in Dulbecco's Modified Eagles Medium/Nutrient Mixture F-12 (DMEM/HAM F12 in ratio 1:1) from Gibco (Paisley, UK).", "values": [
      {"smiles": "O=C(N[C@H]1CCCN2c3c(Br)cc(F)cc3Oc3ccccc3[C@H]12)C(F)(F)F", "note": "(relative stereo) [Example 56, trans-N-(6-Bromo-8-fluoro-2,3,4,14b-tetrahydro-1H-dibenzo[b,f]pyrido[1,2-d][1,4]oxazepin-1-yl)-2,2,2-trifluoroacetamide]", "pEC50": "5.00 to 7.00"},
      {"smiles": "CC(=O)c1cc(F)cc2c1N1CCC[C@H](NC(=O)C(F)(F)F)[C@H]1c1ccccc1O2", "note": "(relative stereo) [Example 57, trans-N-(6-Acetyl-8-fluoro-2,3,4,14b-tetrahydro-1H-dibenzo[b,f]pyrido[1,2-d][1,4]oxazepin-1-yl)-2,2,2-trifluoroacetamide]", "pEC50": "> 8.00"},
      {"smiles": "N#Cc1cc(F)cc2c1N1CCC[C@H](NC(=O)C(F)(F)F)[C@H]1c1ccccc1O2", "note": "(relative stereo) [Example 58, trans-8-Fluoro-2,3,4,14b-tetrahydro-1-[(trifluoroacetyl)amino]-1H-dibenzo[b,f]pyrido-[1,2-d][1,4]oxazepine-6-carbonitrile]", "pEC50": "> 8.00"},
      {"smiles": "C=Cc1cc(F)cc2c1N1CCC[C@H](NC(=O)C(F)(F)F)[C@H]1c1ccccc1O2", "note": "(relative stereo) [Example 59, trans-N-(6-Ethenyl-8-fluoro-2,3,4,14b-tetrahydro-1H-dibenzo[b,f]pyrido[1,2-d][1,4]-oxazepin-1-yl)-2,2,2-trifluoroacetamide]", "pEC50": "> 8.00"},
      {"smiles": "Cc1cc(F)cc2c1N1CCC[C@H](NC(=O)C(F)(F)F)[C@H]1c1ccccc1O2", "note": "(relative stereo) [Example 60, trans-2,2,2-Trifluoro-N-(8-fluoro-2,3,4,14b-tetrahydro-6-methyl-1H-dibenzo[b,f]pyrido-[1,2-d][1,4]oxazepin-1-yl)acetamide]", "pEC50": "> 8.00"},
      {"smiles": "O=C(N[C@H]1CCCN2c3cc(Br)ccc3Oc3ccccc3[C@H]12)C(F)(F)F", "note": "(relative stereo) [Example 61, trans-N-(7-Bromo-2,3,4,14b-tetrahydro-1H-dibenzo[b,f]pyrido[1,2-d][1,4]oxazepin-1-yl)-2,2,2-trifluoroacetamide]", "pEC50": "> 8.00"},
      {"smiles": "CC(=O)c1ccc2c(c1)N1CCC[C@H](NC(=O)C(F)(F)F)[C@H]1c1ccccc1O2", "note": "(relative stereo) [Example 62, trans-N-(7-Acetyl-2,3,4,14b-tetrahydro-1H-dibenzo[b,f]pyrido[1,2-d][1,4]oxazepin-1-yl)-2,2,2-trifluoroacetamide]", "pEC50": "7.00 to 8.00"},
      {"smiles": "N#Cc1ccc2c(c1)N1CCC[C@H](NC(=O)C(F)(F)F)[C@H]1c1ccccc1O2", "note": "(relative stereo) [Example 63, trans-2,3,4,14b-Tetrahydro-1-[(trifluoroacetyl)amino]-1H-dibenzo[b,f]pyrido[1,2-d][1,4]oxazepine-7-carbonitrile]", "pEC50": "> 8.00"},
      {"smiles": "C=Cc1ccc2c(c1)N1CCC[C@H](NC(=O)C(F)(F)F)[C@H]1c1ccccc1O2", "note": "(relative stereo) [Example 64, trans-N-(7-Ethenyl-2,3,4,14b-tetrahydro-1H-dibenzo[b,f]pyrido[1,2-d][1,4]oxazepin-1-yl)-2,2,2-trifluoroacetamide]", "pEC50": "5.00 to 7.00"},
      {"smiles": "CCC(=O)Nc1ccc2c(c1)N1CCC[C@H](NC(=O)C(F)(F)F)[C@H]1c1ccccc1O2", "note": "(relative stereo) [Example 67, trans-N-[2,3,4,14b-Tetrahydro-7-[(1-oxopropyl)amino]-1H-dibenzo[b,f]pyrido[1,2-d][1,4]oxazepin-1-yl]-2,2,2-trifluoroacetamide]", "pEC50": "5.00 to 7.00"},
      {"smiles": "O=C(N[C@H]1CCCN2c3cc(Cl)ccc3Oc3cc(Br)ccc3[C@H]12)C(F)(F)F", "note": "(relative stereo) [Example 68, trans-N-(12-Bromo-7-chloro-2,3,4,14b-tetrahydro-1H-dibenzo[b,f]pyrido[1,2-d][1,4]oxazepin-1-yl)-2,2,2-trifluoroacetamide]", "pEC50": "7.00 to 8.00"},
      {"smiles": "N#Cc1ccc2c(c1)Oc1ccc(Cl)cc1N1CCC[C@H](NC(=O)C(F)(F)F)[C@@H]21", "note": "(relative stereo) [Example 69, trans-7-Chloro-2,3,4,14b-tetrahydro-1-[(trifluoroacetyl)amino]-1H-dibenzo[b,f]pyrido[1,2-d][1,4]oxazepine-12-carbonitrile]", "pEC50": "7.00 to 8.00"}
    ]}
  ]
}
